{
  "source": "ChEMBL document CHEMBL5550134",
  "about": "“An insight into the pharmacology of cysteine/methionine containing peptide drugs” (Eur J Med Chem, 2024)",
  "key": {"[1]": {"test": "Terminal half life in human", "assay_type": "ADME", "settings": "read-out: beta t1/2 (converted)"}, "[2]": {"test": "Half life in human at 0.5 mg/kg, iv", "assay_type": "ADME, organism-based", "settings": "in vivo"}, "[3]": {"test": "Half life in human", "assay_type": "ADME"}, "[4]": {"test": "Plasma protein binding in human", "assay_type": "ADME, cell-free", "settings": "read-out: PPB (converted)"}, "[5]": {"test": "Half life in iv dosed human", "assay_type": "ADME, organism-based", "settings": "in vivo"}, "[6]": {"test": "Plasma protein binding in human at 0.2 ug/ml", "assay_type": "ADME, cell-free", "settings": "at 0.2 µg/mL, read-out: PPB"}, "[7]": {"test": "Subcutaneous bioavailability in human", "settings": "in vivo, sc"}, "[8]": {"test": "Half life in human at 0.3 mg/kg, iv", "assay_type": "ADME, organism-based", "settings": "in vivo"}, "[9]": {"test": "Terminal elimination half life in human", "assay_type": "ADME"}, "[10]": {"test": "Oral bioavailability in human", "assay_type": "ADME, organism-based", "settings": "in vivo"}, "[11]": {"test": "Half life in human plasma", "assay_type": "ADME, cell-free"}},
  "note": "Numbered stars: 1 amine (or outer) side, 2 acyl side, 3 side chain; on linkers, the order of the positions; unused ones are H or OH. Bridge positions count the residues as written; N and C are the ends. Square brackets hold non-standard residues; d marks the D form. Peptide text beside a SMILES is read from it. * marks the point of attachment. 2Nal = N[C@@H](Cc1ccc2ccccc2c1)C(=O)O; Benzoyl(4-F) = O=C(c1ccc(F)cc1)*; Cit = NC(=O)NCCC[C@H](N)C(=O)O; X1 = O=C(CCC[*:2])[*:1]",
  "data": [
    {"compound": "NCCCC[C@H](NC(=O)[C@@H]1CCCN1C(=O)[C@@H]1CSSC[C@H](NC(=O)CNC(=O)CNC(=O)CN)C(=O)N[C@@H](Cc2ccc(O)cc2)C(=O)N[C@@H](Cc2ccccc2)C(=O)N[C@@H](CCC(N)=O)C(=O)N[C@@H](CC(N)=O)C(=O)N1)C(=O)NCC(N)=O", "note": "[TERLIPRESSIN]", "values": [
      {"measurement": "half-life", "setting": "[1]", "result": 0.9, "unit": "h"}
    ]},
    {"compound": "C/C=C1\\NC(=O)[C@H]2CSSCC/C=C/[C@H](CC(=O)N[C@H](C(C)C)C(=O)N2)OC(=O)[C@H](C(C)C)NC1=O", "note": "[ROMIDEPSIN]", "values": [
      {"measurement": "half-life", "setting": "[2]", "result": 3, "unit": "h"}
    ]},
    {"compound": "CC(=O)N[C@@H](CCCNC(=N)N)C(=O)N[C@H]1CSSC[C@@H](C(N)=O)NC(=O)[C@H](Cc2c[nH]c3ccccc23)NC(=O)[C@H](CCCNC(=N)N)NC(=O)[C@@H](Cc2ccccc2)NC(=O)[C@H](Cc2c[nH]cn2)NC(=O)[C@@H](C)NC1=O", "note": "[SETMELANOTIDE]", "values": [
      {"measurement": "half-life", "setting": "[3]", "result": 11, "unit": "h"},
      {"measurement": "fraction unbound", "setting": "[4]", "result": 0.209}
    ]},
    {"compound": "CC(=O)N[C@H](CSSC[C@H](N)C(=O)O)C(=O)N[C@H](C)C(=O)N[C@H](CCCNC(=N)N)C(=O)N[C@H](CCCNC(=N)N)C(=O)N[C@H](CCCNC(=N)N)C(=O)N[C@H](C)C(=O)N[C@H](CCCNC(=N)N)C(N)=O", "note": "[ETELCALCETIDE]", "values": [
      {"measurement": "half-life", "setting": "[5]", "result": 72, "unit": "h"}
    ]},
    {"compound": "CSCC[C@@H]1NC(=O)[C@H](CC(C)C)NC(=O)[C@H](CCCNC(=N)N)NC(=O)[C@H](CO)NC(=O)[C@@H]2CSSC[C@@H]3NC(=O)[C@H](CO)NC(=O)CNC(=O)[C@H]([C@@H](C)O)NC(=O)[C@H](CSSC[C@H](N)C(=O)N[C@@H](CCCCN)C(=O)NCC(=O)N[C@@H](CCCCN)C(=O)NCC(=O)N[C@@H](C)C(=O)N[C@@H](CCCCN)C(=O)N2)NC(=O)[C@H](CSSC[C@@H](C(N)=O)NC(=O)[C@H](CCCCN)NC(=O)CNC(=O)[C@H](CO)NC(=O)[C@H](CCCNC(=N)N)NC3=O)NC(=O)[C@H](CC(=O)O)NC(=O)[C@H](Cc2ccc(O)cc2)NC1=O", "note": "[ZICONOTIDE]", "values": [
      {"measurement": "fraction unbound at 0.2 ug/ml", "setting": "[6]", "result": 0.5}
    ]},
    {"compound": "CC[C@H](C)[C@H](NC(=O)[C@H](Cc1ccccc1)NC(=O)[C@H](CC(=O)O)NC(=O)[C@H](CCCNC(=N)N)NC(=O)[C@H](C)NC(=O)[C@H](C)NC(=O)[C@H](CC(C)C)NC(=O)[C@H](CC(N)=O)NC(=O)[C@H](CC(=O)O)NC(=O)[C@H](CC(C)C)NC(=O)[C@@H](NC(=O)[C@@H](NC(=O)[C@H](CC(N)=O)NC(=O)[C@H](CCSC)NC(=O)[C@H](CCC(=O)O)NC(=O)[C@H](CC(=O)O)NC(=O)[C@H](CO)NC(=O)[C@H](Cc1ccccc1)NC(=O)[C@H](CO)NC(=O)CNC(=O)[C@H](CC(=O)O)NC(=O)CNC(=O)[C@@H](N)Cc1c[nH]cn1)[C@@H](C)O)[C@@H](C)CC)C(=O)N[C@@H](CC(N)=O)C(=O)N[C@@H](Cc1c[nH]c2ccccc12)C(=O)N[C@@H](CC(C)C)C(=O)N[C@H](C(=O)N[C@@H](CCC(N)=O)C(=O)N[C@H](C(=O)N[C@@H](CCCCN)C(=O)N[C@H](C(=O)N[C@H](C(=O)N[C@@H](CC(=O)O)C(=O)O)[C@@H](C)O)[C@@H](C)CC)[C@@H](C)O)[C@@H](C)CC", "note": "[TEDUGLUTIDE]", "values": [
      {"measurement": "subcutaneous bioavailability", "setting": "[7]", "result": 88, "unit": "%"},
      {"measurement": "half-life", "setting": "[1]", "result": 1.3, "unit": "h"}
    ]},
    {"compound": "VOSORITIDE", "values": [
      {"measurement": "t1/2", "setting": "[3]", "result": 0.35, "unit": "h"}
    ]},
    {"compound": "NESIRITIDE", "values": [
      {"measurement": "t1/2", "setting": "[8]", "result": 0.3, "unit": "h"}
    ]},
    {"compound": "LIXISENATIDE", "values": [
      {"measurement": "beta t1/2", "setting": "[9]", "result": 3, "unit": "h"}
    ]},
    {"compound": "TESAMORELIN", "values": [
      {"measurement": "t1/2", "setting": "[3]", "result": 0.433, "unit": "h"},
      {"measurement": "F", "setting": "[10]", "result": "< 4", "unit": "%"}
    ]},
    {"compound": "CC[C@H](C)[C@H](NC(=O)[C@H](CO)NC(=O)[C@H](CC(N)=O)NC(=O)[C@H](CC(C)C)NC(=O)[C@H](Cc1ccc(O)cc1)NC(=O)[C@H](CCCCN)NC(=O)[C@H](CCCCN)NC(=O)[C@@H](NC(=O)[C@H](C)NC(=O)[C@H](CCSC)NC(=O)[C@H](CCC(N)=O)NC(=O)[C@H](CCCCN)NC(=O)[C@H](CCCN=C(N)N)NC(=O)[C@H](CC(C)C)NC(=O)[C@H](CCCN=C(N)N)NC(=O)[C@@H](NC(=O)[C@H](Cc1ccc(O)cc1)NC(=O)[C@H](CC(N)=O)NC(=O)[C@H](CC(=O)O)NC(=O)[C@@H](NC(=O)[C@H](Cc1ccccc1)NC(=O)[C@@H](NC(=O)[C@H](C)NC(=O)[C@H](CC(=O)O)NC(=O)[C@H](CO)NC(=O)[C@@H](N)Cc1c[nH]cn1)C(C)C)[C@@H](C)O)[C@@H](C)O)C(C)C)C(=O)N[C@@H](CC(C)C)C(=O)N[C@@H](CC(N)=O)C(N)=O", "values": [
      {"measurement": "half-life", "setting": "[3]", "result": 0.0167, "unit": "h"}
    ]},
    {"compound": "CC[C@H](C)[C@H](NC(=O)[C@H](CCC(=O)O)NC(=O)[C@H](CO)NC(=O)[C@@H](NC(=O)[C@@H](N)CO)C(C)C)C(=O)N[C@@H](CCC(N)=O)C(=O)N[C@@H](CC(C)C)C(=O)N[C@@H](CCSC)C(=O)N[C@@H](Cc1cnc[nH]1)C(=O)N[C@@H](CC(N)=O)C(=O)N[C@@H](CC(C)C)C(=O)NCC(=O)N[C@@H](CCCCN)C(=O)N[C@@H](Cc1cnc[nH]1)C(=O)N[C@@H](CC(C)C)C(=O)N[C@@H](CC(N)=O)C(=O)N[C@@H](CO)C(=O)N[C@@H](CCSC)C(=O)N[C@@H](CCC(=O)O)C(=O)N[C@@H](CCCN=C(N)N)C(=O)N[C@H](C(=O)N[C@@H](CCC(=O)O)C(=O)N[C@@H](Cc1c[nH]c2ccccc12)C(=O)N[C@@H](CC(C)C)C(=O)N[C@@H](CCCN=C(N)N)C(=O)N[C@@H](CCCCN)C(=O)N[C@@H](CCCCN)C(=O)N[C@@H](CC(C)C)C(=O)N[C@@H](CCC(N)=O)C(=O)N[C@@H](CC(=O)O)C(=O)N[C@H](C(=O)N[C@@H](Cc1cnc[nH]1)C(=O)N[C@@H](CC(N)=O)C(=O)N[C@@H](Cc1ccccc1)C(=O)O)C(C)C)C(C)C", "note": "[TERIPARATIDE]", "values": [
      {"measurement": "half-life", "setting": "[3]", "result": 1, "unit": "h"},
      {"measurement": "subcutaneous bioavailability", "setting": "[7]", "result": 95, "unit": "%"}
    ]},
    {"compound": "NC(N)=NCCC[C@@H](N)C(=O)N[C@@H](CCCN=C(N)N)C(=O)N1CCC[C@H]1C(=O)N1C[C@H](O)C[C@H]1C(=O)NCC(=O)N[C@@H](Cc1cccs1)C(=O)N[C@@H](CO)C(=O)N1Cc2ccccc2C[C@@H]1C(=O)N1[C@H](C(=O)N[C@@H](CCCN=C(N)N)C(=O)O)C[C@@H]2CCCC[C@@H]21", "note": "[ICATIBANT]", "values": [
      {"measurement": "half-life", "setting": "[3]", "result": 1.4, "unit": "h"},
      {"measurement": "subcutaneous bioavailability", "setting": "[7]", "result": 97, "unit": "%"}
    ]},
    {"compound": "CC[C@H](C)[C@@H]1NC(=O)[C@H](Cc2ccc(OC)cc2)NC(=O)CCCSC[C@@H](C(=O)N2CCC[C@H]2C(=O)N[C@@H](CC(C)C)C(=O)NCC(N)=O)NC(=O)[C@H](CC(N)=O)NC(=O)[C@H](CCC(N)=O)NC1=O", "note": "[CARBETOCIN] (Y(Me)IQNCPLG-NH2; linker N-5 via X1)", "values": [
      {"measurement": "half-life", "setting": "[11]", "result": 0.667, "unit": "h"}
    ]},
    {"compound": "N=C(N)NCCC[C@H](NC(=O)[C@@H]1CSSC[C@H](NC(=O)[C@H](Cc2ccc3ccccc3c2)NC(=O)[C@H](CCCNC(=N)N)NC(=O)[C@H](CCCNC(=N)N)NC(=O)c2ccc(F)cc2)C(=O)N[C@@H](Cc2ccc(O)cc2)C(=O)N[C@@H](CCCNC(N)=O)C(=O)N[C@@H](CCCCN)C(=O)N[C@@H](CCCCN)C(=O)N2CCC[C@H]2C(=O)N[C@@H](Cc2ccc(O)cc2)C(=O)N[C@@H](CCCNC(=N)N)C(=O)N[C@@H](CCCNC(N)=O)C(=O)N1)C(N)=O", "note": "({Benzoyl(4-F)}-RR[2Nal]CY[Cit]KKPYR[Cit]CR-NH2; disulfide 4-13)", "values": [
      {"measurement": "half-life", "setting": "[3]", "result": 2, "unit": "h"},
      {"measurement": "fraction unbound", "setting": "[4]", "result": "< 0.01"}
    ]}
  ]
}
